Data set [1] relates to LDLR. The data set is described as follows: ELISA of LDLR protein in HepG2 cells. The following applies: HepG2 cells. Type of data set: cell-based, human. How it is done: (§1) Additional secondary assays were performed in HepG2 cells to further characterize the cellular response to treatment with select confirmed TRIB1 inducer hits. The results of the ELISA, CTG, and qPCR secondary assays are summarized in Table B. For all secondary assays, the experiments were performed using powders of freshly purified compounds.
(§2) To further characterize the relationship of TRIB1 induction and PCSK9 reduction, ELISAs were performed to measure the levels of secreted ApoB, PCSK9, and LDLR. […] As predicted treatment with TRIB1 inducer hits caused a decrease in ApoB levels detected by ELISA. In parallel effort, 3200 BIOA and NATP compounds were screened for PCSK9 expression inhibitors. Hits were defined as inducing greater than 3-fold downregulation of PCSK9, and 3.8% of the screened compounds were confirmed as hits. […] In further experiments, a strong correlation was confirmed between TRIB1 induction and PCSK9 repression in DOS Collection hits. ELISA analysis confirmed that treatment with TRIB1 inducers reduced the PCSK9 protein levels. LDLR protein levels were also analyzed by ELISA to determine whether compounds that modulate both TRIB1 and PCSK9 had any effect on LDLR protein levels.

Data set [2] concerns HMGCR. In words: qPCR HMGCR transcript level in HepG2 cells. It counts as cell-based, human. More on the design: key: A: Increase <2-fold; B: Increase >2-fold; X: Decrease <2-fold; Y: Decrease >2-fold; No significant change. How it is done: (§3) In the primary screen, HepG2 cells were plated in 384-well plates at 2000 cells per well and incubated for 20 hours with each compound in duplicate at 10 microM concentration. Then RNA was isolated, reverse-transcribed to cDNA, and stored at −80° C. Expression levels of TRIB1 and other target genes, such as SORT1 and PCSK9, were determined by quantitative PCR. Relative gene expression level was normalized to expression of the housekeeping gene, GAPDH. A “hit” was defined as those compounds that caused a greater than 2-fold increase in relative target gene expression when normalized to GAPDH expression, compared to DMSO-treated control. Using these criteria, 130 hits were identified for TRIB1 (0.8% hit rate).
(§4) Further analysis of the expression levels of various proteins in the cholesterol and triglyceride biosynthetic pathways in response to TRIB1 inducer treatment was performed. In particular, transcript levels of additional lipoprotein metabolism pathway proteins SCAP, SREBF1, SREBF2, HMGCR, HMGCS, SCD1, FASN and MTTP were assessed by qPCR, along with TRIB1, LDLR, and PCSK9. The gene expression profile for the same subset of genes was also assessed after treatment with the statin atorvastatin (Lipitor), commonly used in therapy for hypercholesterolemia and other cardiovascular diseases.

The test system of data set [3] is SCAP. In words: qPCR SCAP transcript level in HepG2 cells. It counts as cell-based, human. The arrangement: key: A: Increase <2-fold; B: Increase >2-fold; X: Decrease <2-fold; Y: Decrease >2-fold; No significant change. The procedure: as §3, §4
(In general: Quantitative PCR measures a nucleic acid by following its amplification.)

Data set [4] concerns HepG2 cells. In words: Cell Titer Glo (CTG) cell viability assay. The settings on record: cell viability (ATP). It counts as cell-based, human. More on the design: key: A: Increase <2-fold; B: Increase >2-fold; X: Decrease <2-fold; Y: Decrease >2-fold; No significant change. The procedure: Cell viability was determined using a Cell Titer Glo (CTG) assay ([…]) after treatment with TRIB1 inducer compounds. In this assay, the number of viable cells in culture is based on quantitation of ATP, which indicates metabolically active cells. Addition of the reagent results in cell lysis and generation of a luminescent signal proportional to the amount of ATP present, which is directly proportional to the number of viable, metabolically active cells present in culture. Most TRIB1 inducer compounds had no significant effect on cell viability.
For orientation: In ATP-based viability assays light output follows the ATP content of the culture.

For data set [5], the system named is SCD1. The data set is described as follows: qPCR SCD1 transcript level in HepG2 cells. Type of data set: cell-based. The settings on record: Homo sapiens, 20 h. How it is done:
as §3, §4

Data set [6] concerns SREBF1. The data set is described as follows: qPCR SREBF1 transcript level in HepG2 cells. It counts as cell-based, human. The arrangement: key: A: Increase <2-fold; B: Increase >2-fold; X: Decrease <2-fold; Y: Decrease >2-fold; No significant change. How it is done:
as §3, §4

The test system of data set [7] is LDLR. The data set is described as follows: qPCR LDLR expression in HepG2 cells. Type of data set: cell-based, human. The following applies: for qPCR LDLR: HepG2 cells. The procedure:
as §3, §4
(§5) The kinetics of the modulation of TRIB1, LDLR, PCSK9 and MTTP gene expression after treatment by select TRIB1 inducer compounds was monitored by qPCR analysis (FIG. 4). RNA was extracted from cells at various timepoints over 28 hours of treatment (0, 2, 4, 6, 8, 24, 28 hours). Specifically, compounds 12a and 14a induced transcriptional responses over time similar to those produced by berberine, a plant alkaloid used in Chinese medicine. […] Both compound 12a and compound 14a induce TRIB1 and LDLR and repress PCSK9 and MTTP expression with similar kinetics and similar fold change as berberine Importantly, both compounds induce these gene expression changes at much lower concentrations than berberine. […] This increased potency indicates the potential therapeutic efficacy of such compounds for treatment of cardiovascular diseases, particularly hypercholesterolemia and related conditions.

In data set [8] the test system is FASN. The data set is described as follows: qPCR FASN transcript level in HepG2 cells. It counts as cell-based. The following applies: Homo sapiens, 20 h. How it is done:
as §3, §4

For data set [9], the system named is TRIB1. In words: qPCR TRIB1 expression in HepG2 cells. The following applies: for fold induction at 10 µM: Homo sapiens, 20 h. The arrangement: key to qPCR TRIB1: A: Increase <2-fold; B: Increase >2-fold; X: Decrease <2-fold; Y: Decrease >2-fold; No significant change. Type of data set: cell-based, human. The procedure: as §3, §4, §5
Data set [10] has as its system PCSK9. The data set is described as follows: ELISA of secreted PCSK9 protein in HepG2 cells. Type of data set: cell-based, human. The following applies: HepG2 cells. The procedure:
as §1, §2
On the technique in general: In an ELISA, binding on a coated surface is turned into a signal by an enzyme label.

In data set [11] the test system is ApoB. The data set is described as follows: ELISA of secreted ApoB in HepG2 cells. Type of data set: cell-based, human. The settings on record: HepG2 cells. The procedure: as §1, §2
For data set [12], the system named is HMGCS. In words: qPCR HMGCS transcript level in HepG2 cells. It counts as cell-based. The following applies: Homo sapiens, 20 h. How it is done:
as §3, §4

For data set [13], the system named is SREBF2. The data set is described as follows: qPCR SREBF2 transcript level in HepG2 cells. It counts as cell-based, human. More on the design: key: A: Increase <2-fold; B: Increase >2-fold; X: Decrease <2-fold; Y: Decrease >2-fold; No significant change. How it is done: as §3, §4
Data set [14] deals with PCSK9. The data set is described as follows: qPCR PCSK9 expression in HepG2 cells. It counts as cell-based, human. The settings on record: for fold induction at 10 µM: Homo sapiens, 20 h, HepG2 cells. How it is done: as §3, §4, §5

Experimental findings from patent publication US9526720B2, “Modulators of hepatic lipoprotein metabolism” (The Broad Institute, Inc., priority 2012, dated 2016) are described below.

Broadly, the fold induction is the ratio of treated to control signal. With `CN1C(=O)c2cc(NC(=O)Cc3cccs3)ccc2OC[C@@H]2O[C@H](CC(=O)NCc3ccc(-c4ccccc4)cc3)CC[C@@H]21` [Compound 4a], the “ELISA LDLR” value in [1] is recorded as “A (Increase <2-fold)”. In data set [2], the “qPCR HMGCR” value is “X (Decrease <2-fold)”. Also, the “qPCR SCAP” value in [3] is listed as “X (Decrease <2-fold)”. In data set [4], the CTG result is on record as “N”. The fold induction at 10 µM was less than 2 in data set [5]; more than 2 in data set [8]; more than 2 in data set [9] (HepG2 cells); more than 2 in data set [12]; more than 2 in [14]. For the same molecule, in [6], the “qPCR SREBF1” value is “X (Decrease <2-fold)”. In data set [7], the “qPCR LDLR” value is recorded as “A (Increase <2-fold)”. For the same molecule, in [10], the “ELISA PCSK9” value is reported as “X (Decrease <2-fold)”. Also, the “ELISA ApoB” value in data set [11] is “Y (Decrease >2-fold)”. In [13], the “qPCR SREBF2” value is “X (Decrease <2-fold)”.
`CC(C)c1c(C(=O)Nc2ccccc2)c(-c2ccccc2)c(-c2ccc(F)cc2)n1CC[C@@H](O)C[C@@H](O)CC(=O)O` [Atorvastatin, atorvastatin, reference compound]: in [1], the “ELISA LDLR” value is recorded as “A (Increase <2-fold)”. For the same molecule, the “qPCR HMGCR” value in [2] is given as “N”. The “qPCR SCAP” value in data set [3] was “N”. For the same molecule, the CTG result in data set [4] is reported as “N”. Besides, the fold induction at 10 µM was less than 2 in data set [5], less than 2 in data set [8], less than 2 in data set [12] and more than 2 in data set [14]. Moreover, in [6], the “qPCR SREBF1” value is “N”. Moreover, the “qPCR LDLR” value in [7] was “B (Increase >2-fold)”. The “increase of LDLR mRNA levels” value in data set [7] (time course, HepG2) is recorded as approximately 2 fold. In data set [9] (HepG2, qPCR), the “TRIB1 expression (in words)” value is listed as “did not significantly affect”. Also, the “qPCR TRIB1” value in data set [9] (HepG2 cells) is given as “N”. In addition, the “ELISA PCSK9” value in data set [10] is “A (Increase <2-fold)”. Also, the “ELISA ApoB” value in [11] is on record as “X (Decrease <2-fold)”. In [13], the “qPCR SREBF2” value was “A (Increase <2-fold)”. Further, the “increase of PCSK9 mRNA levels” value in data set [14] (time course, HepG2) is approximately 2 fold.
With `O=C(C[C@H]1CC[C@H]2[C@@H](COC[C@@H](O)CN2Cc2ccc(Oc3ccccc3)cc2)O1)N1CCc2ccccc2C1` [Compound 7a], in [1], the “ELISA LDLR” value is on record as “B (Increase >2-fold)”. In addition, in data set [2], the “qPCR HMGCR” value is on record as “Y (Decrease >2-fold)”. Besides, in data set [3], the “qPCR SCAP” value is recorded as “N”. For the same molecule, in data set [4], the CTG result is reported as “N”. The fold induction at 10 µM is less than 2 in [5]; less than 2 in [8]; more than 2 in [9] (HepG2 cells); more than 2 in data set [12]; more than 2 in data set [14]. Besides, in [6], the “qPCR SREBF1” value is “N”. The “qPCR LDLR” value in data set [7] is recorded as “B (Increase >2-fold)”. Further, the “ELISA PCSK9” value in [10] is “Y (Decrease >2-fold)”. The “ELISA ApoB” value in data set [11] is listed as “Y (Decrease >2-fold)”. Also, in data set [13], the “qPCR SREBF2” value is “N”.
Take `O=C(C[C@@H]1CC[C@@H]2[C@H](COC[C@@H](O)CN2CCC(F)(F)F)O1)NCc1ccc(Oc2ccccc2)cc1` [Compound 8a]: in data set [1], the “ELISA LDLR” value is recorded as “B (Increase >2-fold)”. Moreover, the “qPCR HMGCR” value in data set [2] was “Y (Decrease >2-fold)”. In addition, the “qPCR SCAP” value in data set [3] is recorded as “N”. Besides, in data set [4], the CTG entry is reported as “N”. In addition, the fold induction at 10 µM in data set [5] was less than 2; in [8], less than 2; in data set [9] (HepG2 cells), more than 2; in data set [12], more than 2; in data set [14] it was more than 2. For the same molecule, the “qPCR SREBF1” value in [6] is listed as “N”. For the same molecule, the “qPCR LDLR” value in data set [7] is “B (Increase >2-fold)”. In data set [10], the “ELISA PCSK9” value is listed as “X (Decrease <2-fold)”. Further, in data set [11], the “ELISA ApoB” value was “Y (Decrease >2-fold)”. Moreover, the “qPCR SREBF2” value in data set [13] is “N”.
